Results from patent publication US11584714B2 (priority 2018, dated 2023).
pKi: −log10 of the molar value. Where a name gives a salt, the structure may show the parent alone. Read-outs that look alike come from different tables or passages of the source.

Legend:
Format in all cases: biochemical
mMASP-2 = mMASP-2 (Mus musculus (Mouse), UniProt Q91WP0); test: Enzymatic inhibition of mMASP-2; details: read-out: mMASP-2 Ki
MASP-2 (CCP1-CCP2-SP) = MASP-2 (CCP1-CCP2-SP) (Homo sapiens (Human), UniProt O00187); test: biochemical
human α-thrombin = human α-thrombin (Homo sapiens (Human), UniProt P00734); test: Enzymatic assay for thrombin (Boc-VPR-AMC substrate); details: for Ki: Thrombin Ki (μM); for pKi: read-out: Thrombin Ki
[1] = selectivity for MASP-2 inhibition versus thrombin
[2] = MASP-2 inhibition versus thrombin

Chain of mMASP-2 (Q91WP0 20-685): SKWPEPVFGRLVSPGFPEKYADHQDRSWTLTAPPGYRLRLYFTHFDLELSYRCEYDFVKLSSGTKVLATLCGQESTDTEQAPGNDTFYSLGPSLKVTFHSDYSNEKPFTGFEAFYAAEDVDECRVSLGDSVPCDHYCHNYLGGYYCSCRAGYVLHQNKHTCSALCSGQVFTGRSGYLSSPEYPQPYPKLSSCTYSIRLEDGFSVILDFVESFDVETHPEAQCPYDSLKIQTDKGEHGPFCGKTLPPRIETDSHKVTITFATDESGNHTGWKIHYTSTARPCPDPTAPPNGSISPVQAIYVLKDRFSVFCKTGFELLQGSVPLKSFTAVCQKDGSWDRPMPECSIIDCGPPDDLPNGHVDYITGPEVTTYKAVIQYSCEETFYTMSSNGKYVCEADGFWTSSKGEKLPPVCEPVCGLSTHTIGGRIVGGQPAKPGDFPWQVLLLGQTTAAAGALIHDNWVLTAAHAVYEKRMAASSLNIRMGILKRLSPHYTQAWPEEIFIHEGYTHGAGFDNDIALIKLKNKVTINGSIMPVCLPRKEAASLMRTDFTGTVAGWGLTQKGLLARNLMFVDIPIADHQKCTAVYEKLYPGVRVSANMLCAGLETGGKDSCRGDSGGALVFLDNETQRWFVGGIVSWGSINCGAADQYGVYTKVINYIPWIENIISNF
Chain of MASP-2 (CCP1-CCP2-SP) (O00187 445-686): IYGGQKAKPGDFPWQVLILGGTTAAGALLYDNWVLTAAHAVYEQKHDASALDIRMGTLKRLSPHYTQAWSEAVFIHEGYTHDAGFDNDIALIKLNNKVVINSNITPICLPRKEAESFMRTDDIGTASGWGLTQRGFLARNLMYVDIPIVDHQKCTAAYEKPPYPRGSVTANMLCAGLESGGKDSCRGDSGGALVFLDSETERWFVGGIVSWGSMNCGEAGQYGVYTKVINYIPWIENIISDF

Row | SMILES | pKi (mMASP-2) | pKi (MASP-2 (CCP1-CCP2-SP)) | MASP-2 vs. thrombin selectivity (MASP-2 (CCP1-CCP2-SP); [1]) | Ki (human α-thrombin) [µM] | MASP-2 vs. thrombin selectivity (MASP-2 (CCP1-CCP2-SP); [2]) | pKi (MASP-2 (CCP1-CCP2-SP); read-out: MASP-2 Ki) | pKi (human α-thrombin)
1 | CCCCCN[C@H](CCc1ccccc1)C(=O)N[C@@H](C)C(=O)NCc1ccc(N)nc1C [compound 1377, (R)—N—((S)-1-(((6-Amino-2-methylpyridin-3-yl)methyl)amino)-1-oxopropan-2-yl)-2-(pentylamino)-4-phenylbutanamide Di-trifluoroacetate salt] | < 4.60 | 5.60 to 6.30 | ** (≥5.0 to <25-fold) | 10 to 25 | – | – | –
2 | Cc1cccc(CC[C@@H](N)C(=O)N[C@@H](C)C(=O)NCc2ccc(C(=N)N)cc2)c1C [compound 1072] | > 6.30 | – | – | – | ** (5.0 to 25-fold) | > 6.30 | > 6.30
3 | CCc1cccc([C@H]2CN[C@@H](C(=O)N[C@@H](C)C(=O)NCc3ccc(C(=N)N)cc3)C2)c1 [compound 1302, (2R,4S)—N—((S)-1-((4-Carbamimidoylbenzyl)amino)-1-oxopropan-2-yl)-4-(3-ethylphenyl)pyrrolidine-2-carboxamide Dihydrochloride] | > 6.30 | – | *** (≥25 to <100-fold) | 0.5 to 2.5 | – | > 6.30 | –
4 | C[C@H](NC(=O)[C@H]1C[C@H](c2ccccc2)CN1)C(=O)NCc1cc(Cl)ccc1O [compound 1242, (2R,4R)—N—((S)-1-((5-Chloro-2-hydroxybenzyl)amino)-1-oxopropan-2-yl)-4-phenylpyrrolidine-2-carboxamide] | 5.00 to 5.60 | 5.60 to 6.30 | ** (≥5.0 to <25-fold) | 2.5 to 10 | – | – | –
5 | C[C@H](NC(=O)[C@H]1C[C@H](c2ccccc2)CN1)C(=O)NCc1cc(Cl)c2[nH]cnc2c1 [compound 1417, (2R,4R)—N—((S)-1-(((7-Chloro-1H-benzo[d]imidazol-5-yl)methyl)amino)-1-oxopropan-2-yl)-4-phenylpyrrolidine-2-carboxamide Trifluoroacetate salt] | 5.00 to 5.60 | 5.60 to 6.30 | – | – | – | – | < 4.60
6 | C[C@H](NC(=O)[C@H](N)CCc1cccc(F)c1)C(=O)NCc1ccc(C(=N)N)cc1 [compound 1048] | > 6.30 | – | – | – | ** (5.0 to 25-fold) | > 6.30 | > 6.30
7 | Cc1cc(Br)cc(CNC(=O)[C@H](C)NC(=O)[C@H](N)CCc2ccccc2)c1O [compound 1355, (R)-2-amino-N—((S)-1-((5-bromo-2-hydroxy-3-methylbenzyl)amino)-1-oxopropan-2-yl)-4-phenylbutanamide Trifluoroacetate salt] | 4.60 to 5.00 | – | – | – | – | > 6.30 | < 4.60
8 | C[C@@H](NC(=O)[C@H](N)CCc1ccccc1)C(=O)NCc1ccc2nc(N)[nH]c2c1 [compound 1170] | > 4.60 | – | – | – | **** (>100-fold) | > 6.30 | < 4.60
9 | Cc1nc(N)ccc1CNC(=O)[C@H](C)NC(=O)[C@H]1C[C@H](Cc2ccc(Br)c(Cl)c2)CN1 [compound 1466, (2R,4S)—N—((S)-1-(((6-Amino-2-methylpyridin-3-yl)methyl)amino)-1-oxopropan-2-yl)-4-(4-bromo-3-chlorobenzyl)pyrrolidine-2-carboxamide Di-trifluoroacetate salt] | > 6.30 | – | **** (≥100-fold) | 10 to 25 | – | > 6.30 | –
10 | C[C@H](NC(=O)[C@@H](CCc1ccccc1)NC1CCC1)C(=O)NCc1ccc(C(=N)N)cc1 [compound 1108] | > 6.30 | – | – | – | * (1.0 to 5.0-fold) | > 6.30 | > 6.30
11 | Cc1cccc([C@H]2CN[C@@H](C(=O)N[C@@H](C)C(=O)NCc3ccc(N)nc3C)C2)c1 [compound 1257, (2R,4S)—N—((S)-1-(((6-Amino-2-methylpyridin-3-yl)methyl)amino)-1-oxopropan-2-yl)-4-(m-tolyl)pyrrolidine-2-carboxamide] | 4.60 to 5.00 | – | *** (≥25 to <100-fold) | – | – | > 6.30 | < 4.60
12 | C[C@H](NC(=O)[C@H]1C[C@H](c2ccccc2)CN1)C(=O)NCc1cc(Cl)ccc1NS(C)(=O)=O [compound 1274, (2R,4R)—N—((S)-1-((5-chloro-2-(methylsulfonamido)benzyl)amino)-1-oxopropan-2-yl)-4-phenylpyrrolidine-2-carboxamide] | 4.60 to 5.00 | 5.00 to 5.60 | ** (≥5.0 to <25-fold) | – | – | – | < 4.60
13 | C[C@H](NC(=O)[C@H]1C[C@@H](c2cccc(C(F)(F)F)c2)CN1)C(=O)NCc1ccc(C(=N)N)cc1 [compound 1276, (2R,4S)—N—((S)-1-((4-Carbamimidoylbenzyl)amino)-1-oxopropan-2-yl)-4-(3-(trifluoromethyl)phenyl)pyrrolidine-2-carboxamide] | > 6.30 | – | *** (≥25 to <100-fold) | 0.5 to 2.5 | – | > 6.30 | –
14 | Cc1nc(N)ccc1CNC(=O)[C@H](C)NC(=O)[C@H]1C[C@H](Cc2cccc(C(=O)N3CCC3)c2)CN1 [compound 1420, (2R,4S)—N—((S)-1-(((6-Amino-2-methylpyridin-3-yl)methyl)amino)-1-oxopropan-2-yl)-4-(3-(azetidine-1-carbonyl)benzyl)pyrrolidine-2-carboxamide Di-trifluoroacetate salt] | > 6.30 | – | **** (≥100-fold) | 2.5 to 10 | – | > 6.30 | –
15 | C[C@H](NC(=O)[C@H](N)CCc1ccccc1)C(=O)NCc1cc(Br)ccc1O [compound 1279, (R)-2-amino-N—((S)-1-((5-bromo-2-hydroxybenzyl)amino)-1-oxopropan-2-yl)-4-phenylbutanamide] | < 4.60 | 5.60 to 6.30 | ** (≥5.0 to <25-fold) | 2.5 to 10 | – | – | –
16 | CCc1nc(N)ccc1CNC(=O)[C@H](C)NC(=O)[C@H]1C[C@H](c2ccccc2)CN1 [compound 1323, (2R,4R)—N—((S)-1-(((6-Amino-2-ethylpyridin-3-yl)methyl)amino)-1-oxopropan-2-yl)-4-phenylpyrrolidine-2-carboxamide Dihydrochloride] | 4.60 to 5.00 | – | – | – | – | < 4.60 | < 4.60
17 | Cc1nc(N)ccc1CNC(=O)[C@H](C)NC(=O)[C@H]1C[C@H](Cc2ccc(F)c(Cl)c2)CN1 [compound 1459, (2R,4S)—N—((S)-1-(((6-Amino-2-methylpyridin-3-yl)methyl)amino)-1-oxopropan-2-yl)-4-(3-chloro-4-fluorobenzyl)pyrrolidine-2-carboxamide Di-trifluoroacetate salt] | > 6.30 | – | **** (≥100-fold) | 2.5 to 10 | – | > 6.30 | –
18 | C[C@H](NC(=O)[C@H]1C[C@H](c2ccccc2)CN1)C(=O)NCc1ccc2[nH]cc(Cl)c2c1 [compound 1362, (2R,4R)—N—((S)-1-(((3-Chloro-1H-indol-5-yl)methyl)amino)-1-oxopropan-2-yl)-4-phenylpyrrolidine-2-carboxamide] | 5.60 to 6.30 | 5.60 to 6.30 | * (≥1.0 to <5.0-fold) | 0.5 to 2.5 | – | – | –
19 | C[C@H](NC(=O)[C@H]1C[C@H](c2ccccc2)CN1)C(=O)NCc1cc(N)n[nH]1 [compound 1336, (2R,4R)—N—((S)-1-(((3-Amino-1H-pyrazol-5-yl)methyl)amino)-1-oxopropan-2-yl)-4-phenylpyrrolidine-2-carboxamide Dihydrochloride] | < 4.60 | 4.60 to 5.00 | – | – | – | – | < 4.60
20 | CC[C@H](NC(=O)[C@H]1C[C@H](c2ccccc2)CN1)C(=O)NCc1ccc(C(=N)N)cc1 [compound 1290, (2R,4R)—N—((S)-1-((4-carbamimidoylbenzyl)amino)-1-oxobutan-2-yl)-4-phenylpyrrolidine-2-carboxamide] | > 6.30 | – | ** (≥5.0 to <25-fold) | 0.5 to 2.5 | – | > 6.30 | –
21 | COc1ccc(-c2c[nH]c(C(=O)N[C@@H](C)C(=O)NCc3ccc(C(=N)N)cc3)c2)cc1 [compound 1238, (S)—N-(1-((4-Carbamimidoylbenzyl)amino)-1-oxopropan-2-yl)-4-(4-methoxyphenyl)-1H-pyrrole-2-carboxamide] | > 6.30 | – | *** (≥25 to <100-fold) | 2.5 to 10 | – | > 6.30 | –
22 | C[C@H](NC(=O)[C@H]1C[C@H](c2ccccc2)CN1)C(=O)NCc1cc(Cl)cnc1N [compound 1358, (2R,4R)—N—((S)-1-(((2-Amino-5-chloropyridin-3-yl)methyl)amino)-1-oxopropan-2-yl)-4-phenylpyrrolidine-2-carboxamide Di-trifluoroacetate salt] | < 4.60 | 5.60 to 6.30 | – | – | – | – | < 4.60
23 | COc1cc2ccccc2cc1C[C@@H]1CN[C@@H](C(=O)N[C@@H](C)C(=O)NCc2ccc(N)nc2C)C1 [compound 1478, (2R,4S)—N—((S)-1-(((6-Amino-2-methylpyridin-3-yl)methyl)amino)-1-oxopropan-2-yl)-4-((3-methoxynaphthalen-2-yl)methyl)pyrrolidine-2-carboxamide Dihydrochloride] | > 6.30 | – | **** (≥100-fold) | 10 to 25 | – | > 6.30 | –
24 | Cc1nc(N)ccc1CNC(=O)[C@H](C)NC(=O)[C@H]1C[C@H](Cc2ccc3nonc3c2)CN1 [compound 1470, (2R,4S)—N—((S)-1-(((6-Amino-2-methylpyridin-3-yl)methyl)amino)-1-oxopropan-2-yl)-4-(benzo[c][1,2,5]oxadiazol-5-ylmethyl)pyrrolidine-2-carboxamide Di-trifluoroacetate salt] | > 6.30 | – | **** (≥100-fold) | 2.5 to 10 | – | > 6.30 | –
